The record followed here is PubChem BioAssay AID463237 (Sanford-Burnham Center for Chemical Genomics, 2010).

The test system of this series is aqueous solubility, 1x PBS pH 7.4, UV, 18 h. The series is described as follows: aqueous solubility in phosphate buffer, ADME assay, biophysical, 1x PBS (AID 463237). The settings on record: at 100 µM; stronger effect = higher value.

Each structure is given as a SMILES string. Values after ≈ are worked out from the molar mass of the structure shown.

In general, solubility refers to the dissolved amount per volume that the medium holds.

Regarding `CCCCn1c(NC(=O)c2ccc(F)cc2)c(C#N)c2nc3ccccc3nc21`, the solubility is 14 µg/mL (≈ 36.1 µM).
